Converted amounts (≈) assume the structure as drawn. “And” between values parts separate entries of the source, which are not always exact repeats. Equal entries are not always repeated. Where two headings read alike, the source gives them in different places.
Tests used:
[1] = Determination of stability under accelerated testing condition (HPLC total impurities); format: physicochemical; conditions: (40±2)°C, relative humidity (75±5)%, Batch 1-3 on separate table lines
Procedure: Conditions for chromatogram: octadecyl silane chemically bonded silica was used as a filler; a mixed solution wherein methanol-acetonitrile-phosphate buffer (10 mM/L, pH adjusted to 2.7 with phosphoric acid)=40:20:40 was used as mobile phase; column temperature was 40° C.; detecting wavelength was 220 nm. The purity of each of the products in the above described Example was determined using internal standard method. […] The stability of each of the batches was studied via High Performance Liquid Chromatography (HPLC) and the content percentage of the total related substances (total impurities) was determined in addition to the peaks of Agomelatine and acid radicals.

[2] = Determination of water solubility by external standard method
[3] = pH 7
physchem = conditions: thermodynamic from solid

Row | Compound | total impurities % (total related substances) ([1]; time 0 month) | total impurities % (total related substances) ([1]; time 1 month) | total impurities % (total related substances) ([1]; time 2 months) | total impurities % (total related substances) ([1]; time 3 months) | total impurities % (total related substances) ([1]; time 6 months) | Agomelatine content (solubility) ([2]; pH = 7.0 buffer solution) | Agomelatine content (solubility) ([2]; pury water) | Agomelatine content (solubility) [3] | solubility (physchem; pH 7, aqueous buffer) | solubility (physchem; simulated gastric fluid) | solubility (physchem; water)
1 | Agomelatine benzenesulfonic acid complex | 0.11% and 0.12% and 0.14% | 0.12% and 0.14% | 0.12% and 0.14% and 0.16% | 0.14% and 0.16% | 0.14% and 0.15% and 0.17% | – | – | – | – | – | –
2 | Agomelatine sulfuric acid complex | 0.11% and 0.12% and 0.14% | 0.12% and 0.14% | 0.12% and 0.13% and 0.15% | 0.13% and 0.15% | 0.13% and 0.14% and 0.16% | 330 µg/mL | 340 µg/mL | – | – | – | –
3 | COc1ccc2cccc(CCNC(C)=O)c2c1.CS(=O)(=O)O [Agomelatine methanesulfonic acid complex] | 0.21% and 0.22% and 0.24% | 0.22% and 0.24% | 0.22% and 0.23% and 0.25% | 0.23% and 0.25% | 0.23% and 0.24% and 0.26% | – | – | 320 µg/mL | – | – | –
4 | COc1ccc2cccc(CCNC(C)=O)c2c1 [Agomelatine crystallographic form II, N-[2-(7-methoxyl-1-naphthyl)ethyl]acetamide] | – | – | – | – | – | – | – | – | 260 µg/mL (≈ 1070 µM) | 290 µg/mL (≈ 1190 µM) | 270 µg/mL (≈ 1110 µM)
